Laboratory results taken from patent EP1082958A2, “5-HT1F agonists in chronic pain” (ELI LILLY AND COMPANY, priority 1996, dated 1998).

How the values were obtained:
[1] = tested on: neuronal protein extravasation; experiment: Protein extravasation after electrical stimulation of the trigeminal ganglion (Evans Blue in dura); assay type: in vivo, Harlan Sprague-Dawley rats or guinea pigs; settings: 10 minutes before stimulation of the left trigeminal ganglion, dose inhibiting extravasation by 50%, approximated from dose-response curve, rats or guinea pigs (species not given)
Experimental: Harlan Sprague-Dawley rats (225-325 g) or guinea pigs from Charles River Laboratories (225-325 g) were anesthetized with sodium pentobarbital intraperitoneally (65 mg/kg or 45 mg/kg respectively) and placed in a stereotaxic frame (David Kopf Instruments) with the incisor bar set at - 3.5 mm for rats or -4.0 mm for guinea pigs. Following a midline sagital scalp incision, two pairs of bilateral holes were drilled through the skull (6 mm posteriorly, 2.0 and 4.0 mm laterally in rats; 4 mm posteriorly and 3.2 and 5.2 mm laterally in guinea pigs, all coordinates referenced to bregma). Pairs of stainless steel stimulating electrodes (Rhodes Medical Systems, Inc.) were lowered through the holes in both hemispheres to a depth of 9 mm (rats) or 10.5 mm (guinea pigs) from dura.
The femoral vein was exposed and a dose of the test compound was injected intravenously (1 mL/kg). Approximately 7 minutes later, a 50 mg/kg dose of Evans Blue, a fluorescent dye, was also injected intravenously. The Evans Blue complexed with proteins in the blood and functioned as a marker for protein extravasation. Exactly 10 minutes post-injection of the test compound, the left trigeminal ganglion was stimulated for 3 minutes at a current intensity of 1.0 mA (5 Hz, 4 msec duration) with a Model 273 potentiostat/ galvanostat (EG&G Princeton Applied Research).
Fifteen minutes following stimulation, the animals were killed and exsanguinated with 20 mL of saline. The top of the skull was removed to facilitate the collection of the dural membranes. The membrane samples were removed from both hemispheres, rinsed with water, and spread flat on microscopic slides. Once dried, the tissues were coverslipped with a 70% glycerol/water solution.
A fluorescence microscope (Zeiss) equipped with a grating monochromator and a spectrophotometer was used to quantify the amount of Evans Blue dye in each sample. An excitation wavelength of approximately 535 nm was utilized and the emission intensity at 600 nm was determined. The microscope was equipped with a motorized stage and also interfaced with a personal computer. This facilitated the computer-controlled movement of the stage with fluorescence measurements at 25 points (500 µm steps) on each dural sample. The mean and standard deviation of the measurements was determined by the computer.
The extravasation induced by the electrical stimulation of the trigeminal ganglion was an ipsilateral effect (i.e. occurs only on the side of the dura in which the trigeminal ganglion was stimulated). This allows the other (unstimulated) half of the dura to be used as a control. The ratio of the amount of extravasation in the dura from the stimulated side compared to the unstimulated side dura was calculated. […]

[2] = target: T1, 5-HT1E (Homo sapiens, UniProt P28566); experiment: Radioligand binding ([3H]5-HT displacement) to cloned 5-HT1E receptor; settings: read-out: BINDING TO SEROTONIN (5-HT1) RECEPTOR SUBTYPES (Ki-nM) 5-HT1E, 4.5-5.5 nM [3H]5-HT, 37°C, Ki from IC50 by Cheng-Prusoff
T1 construct: expressed in transfected cells; host or cells: transfected Ltk- cells (by analogy 'as described supra')
T1 sequence (P28566 whole entry, species assumed): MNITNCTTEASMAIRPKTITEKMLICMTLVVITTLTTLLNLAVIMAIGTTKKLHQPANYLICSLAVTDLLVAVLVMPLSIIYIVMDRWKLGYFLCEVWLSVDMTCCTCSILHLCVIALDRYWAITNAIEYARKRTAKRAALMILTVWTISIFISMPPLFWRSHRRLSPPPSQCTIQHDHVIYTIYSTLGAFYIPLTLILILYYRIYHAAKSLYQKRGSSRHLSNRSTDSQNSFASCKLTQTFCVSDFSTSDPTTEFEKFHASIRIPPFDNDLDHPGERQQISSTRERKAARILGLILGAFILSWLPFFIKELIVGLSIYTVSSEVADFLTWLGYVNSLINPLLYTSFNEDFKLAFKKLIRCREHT
Experimental: Membrane Preparation: Membranes were prepared from transfected Ltk- cells which were grown to 100% confluency. The cells were washed twice with phosphate-buffered saline, scraped from the culture dishes into 5 mL of ice-cold phosphate-buffered saline, and centrifuged at 200 x g for 5 minutes ^at 4°C. The pellet was resuspended in 2.5 mL of ice-cold Tris buffer (20 mM Tris HCl, pH=7.4 a^t […]) and homogenized with a Wheaton tissue grinder. The lysate was subsequently centrifuged at 200 x g for 5 minutes at 4°C to pellet large fragments which were discarded. The supernatant was collected and centrifuged at 40,000 x g for 20 minutes at 4°C. […] Protein concentrations were determined by the method of Bradford (Anal. Biochem., 72, 248-254 (1976)).
Radioligand Binding: [^3H-5-HT] binding was performed using slight modifications of the 5-HT1D assay conditions reported by Herrick-Davis and Titeler (J. Neurochem., 50, 1624-1631 (1988)) with the omission of masking ligands. […] Incubation times were 30 minutes for both saturation and displacement studies based upon initial investigations which determined equilibrium binding conditions. […] Binding data was analyzed by computer-assisted nonlinear regression analysis (Accufit and Accucomp, Lunden Software, Chagrin Falls, OH). […]

SMILES	Inhibition of Protein Extravasation, i.v. ID50 [1]	Ki [2]
CNS(=O)(=O)Cc1ccc2[nH]cc(CCN(C)C)c2c1.O=C(O)CCC(=O)O [Compound I, 3-[2-(dimethylamino)ethyl]-N-methyl-1H-indole-5-methanesulfonamide butane-1,4-dioate (1:1)]	2.6e-08 mmol/kg	2520 nM
O=C(O)C(=O)O.Oc1ccc2[nH]cc(C3CCNCC3)c2c1 [Compound III, 5-hydroxy-3-(4-piperidinyl)-1H-indole oxalate]	8.9e-09 mmol/kg	–
CCN(CC)C1CCc2cccc(Cl)c2C1.Cl (centres unmarked) [Compound IV, 8-chloro-2-diethylamino-1,2,3,4-tetrahydronaphthalene hydrochloride]	1.2e-07 mmol/kg	–
CN(C)C1CCc2[nH]c3ccc(O)cc3c2C1 (centres unmarked) [Compound V, 6-hydroxy-3-dimethylamino-1,2,3,4-tetrahydrocarbazole]	8.7e-09 mmol/kg	–
